Experimental findings from patent US10336761B2, “TGFβ receptor antagonist” (BRISTOL-MYERS SQUIBB COMPANY, priority 2015, dated 2019) are described below.

By IC50 is commonly meant the midpoint of a concentration-inhibition curve. Read a low IC50 as greater potency in that assay.

HIS-TGFβR1 T204D, sequence (P36897 34-503 T204D): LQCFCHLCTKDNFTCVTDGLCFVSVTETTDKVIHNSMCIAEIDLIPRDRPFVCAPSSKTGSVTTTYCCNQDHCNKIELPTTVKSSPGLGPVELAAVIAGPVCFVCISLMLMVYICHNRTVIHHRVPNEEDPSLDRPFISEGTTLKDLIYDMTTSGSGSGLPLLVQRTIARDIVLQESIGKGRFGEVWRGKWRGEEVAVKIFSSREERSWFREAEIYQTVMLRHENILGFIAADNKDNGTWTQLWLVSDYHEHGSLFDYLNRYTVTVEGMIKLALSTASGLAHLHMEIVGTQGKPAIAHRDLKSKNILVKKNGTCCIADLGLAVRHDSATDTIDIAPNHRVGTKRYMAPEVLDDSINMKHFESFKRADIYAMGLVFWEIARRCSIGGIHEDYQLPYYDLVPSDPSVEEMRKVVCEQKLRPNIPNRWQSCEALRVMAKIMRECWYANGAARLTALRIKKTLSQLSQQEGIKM

This test concerns the target HIS-TGFβR1 T204D (Homo sapiens (Human), UniProt P36897, T204D). Description: HTRF probe-displacement assay, HIS-TGFβR1 T204D. It is filed as binding. The settings on record: 1 hour at room temperature. Background: In TR-FRET formats the signal depends on donor and acceptor labels being close together.
Consider `OC1(c2ccccc2)CCN(Cc2ccn3nc(-c4ccccn4)nc(Nc4ccncc4F)c23)CC1` [Example 277, 1-({4-[(3-fluoropyridin-4-yl)amino]-2-(pyridin-2-yl)pyrrolo[2,1-f][1,2,4]triazin-5-yl}methyl)-4-phenylpiperidin-4-ol], for which the IC50 came to 1.5 nM. Next, `O=c1[nH]c2ccccc2n1C1CCN(Cc2ccn3nc(-c4ccccn4)nc(Nc4ccncc4F)c23)CC1` [Example 278, 1-[1-({4-[(3-fluoropyridin-4-yl)amino]-2-(pyridin-2-yl)pyrrolo[2,1-f][1,2,4]triazin-5-yl}methyl)piperidin-4-yl]-2,3-dihydro-1H-1,3-benzodiazol-2-one]: 1.8 nM; `CN1CCC(N(C)Cc2ccn3nc(-c4ccccn4)nc(Nc4ccncc4F)c23)CC1` [Example 279, 3-fluoro-N-(5-{[methyl(1-methylpiperidin-4-yl)amino]methyl}-2-(pyridin-2-yl)pyrrolo[2,1-f][1,2,4]triazin-4-yl)pyridin-4-amine]: 12 nM; `CN(C)CCNCc1ccn2nc(-c3ccccn3)nc(Nc3ccncc3F)c12` [Example 280, N-[5-({[2-(dimethylamino)ethyl]amino}methyl)-2-(pyridin-2-yl)pyrrolo[2,1-f][1,2,4]triazin-4-yl]-3-fluoropyridin-4-amine]: 1.4 nM. Under `Fc1cnccc1Nc1nc(-c2ccccn2)nn2ccc(CNCCCn3ccnc3)c12` [Example 281, 3-fluoro-N-[5-({[3-(1H-imidazol-1-yl)propyl]amino}methyl)-2-(pyridin-2-yl)pyrrolo[2,1-f][1,2,4]triazin-4-yl]pyridin-4-amine] stands 1.6 nM; under `Fc1cnccc1Nc1nc(-c2ccccn2)nn2ccc(CNC34CC5CC(CC(C5)C3)C4)c12` [Example 282, N-(5-{[(adamantan-1-yl)amino]methyl}-2-(pyridin-2-yl)pyrrolo[2,1-f][1,2,4]triazin-4-yl)-3-fluoropyridin-4-amine], 15 nM; under `CN1CCN(CCCNCc2ccn3nc(-c4ccccn4)nc(Nc4ccncc4F)c23)CC1` [Example 283, 3-fluoro-N-[5-({[3-(4-methylpiperazin-1-yl)propyl]amino}methyl)-2-(pyridin-2-yl)pyrrolo[2,1-f][1,2,4]triazin-4-yl]pyridin-4-amine], 12 nM. Next, `Fc1cnccc1Nc1nc(-c2ccccn2)nn2ccc(CNCCN3CCCCC3)c12` [Example 284, 3-fluoro-N-[5-({[2-(piperidin-1-yl)ethyl]amino}methyl)-2-(pyridin-2-yl)pyrrolo[2,1-f][1,2,4]triazin-4-yl]pyridin-4-amine]: 4.4 nM; `Fc1cnccc1Nc1nc(-c2ccccn2)nn2ccc(CN[C@H]3CCN(Cc4ccccc4)C3)c12` [Example 285, N-[5-({[(3S)-1-benzylpyrrolidin-3-yl]amino}methyl)-2-(pyridin-2-yl)pyrrolo[2,1-f][1,2,4]triazin-4-yl]-3-fluoropyridin-4-amine]: 1.2 nM. `NCCCNCc1ccn2nc(-c3ccccn3)nc(Nc3ccncc3F)c12` [Example 286, N-(5-{[(3-aminopropyl)amino]methyl}-2-(pyridin-2-yl)pyrrolo[2,1-f][1,2,4]triazin-4-yl)-3-fluoropyridin-4-amine] returned an IC50 of 2.9 nM. Next, `OC[C@@H](O)CNCc1ccn2nc(-c3ccccn3)nc(Nc3ccncc3F)c12` [Example 287, (2S)-3-[({4-[(3-fluoropyridin-4-yl)amino]-2-(pyridin-2-yl)pyrrolo[2,1-f][1,2,4]triazin-5-yl}methyl)amino]propane-1,2-diol]: 0.84 nM; `O[C@H]1CC[C@H](NCc2ccn3nc(-c4ccccn4)nc(Nc4ccncc4F)c23)CC1` [Example 288, (1R,4R)-4-[({4-[(3-fluoropyridin-4-yl)amino]-2-(pyridin-2-yl)pyrrolo[2,1-f][1,2,4]triazin-5-yl}methyl)amino]cyclohexan-1-ol]: 3.2 nM. `Fc1cnccc1Nc1nc(-c2cccc(OC(F)(F)F)n2)nn2cccc12` [Example 289, 3-fluoro-N-{2-[6-(trifluoromethoxy)pyridin-2-yl]pyrrolo[2,1-f][1,2,4]triazin-4-yl}pyridin-4-amine] yielded an IC50 of 3 nM. As to `Fc1cnccc1Nc1nc(-c2ccccn2)nn2ccc(CN3CCOCC3)c12` [Example 290, 3-fluoro-N-[5-(morpholin-4-ylmethyl)-2-(pyridin-2-yl)pyrrolo[2,1-f][1,2,4]triazin-4-yl]pyridin-4-amine], the IC50 was found to be 1.2 nM. Turning to `CC(=O)Nc1cc(Nc2nc(-c3cccc(F)n3)nn3cccc23)ccn1` [Example 291, N-(4-{[2-(6-fluoropyridin-2-yl)pyrrolo[2,1-f][1,2,4]triazin-4-yl]amino}pyridin-2-yl)acetamide], the concentration for half-maximal inhibition (IC50) was determined as 0.86 nM. Under `N#Cc1cc(Nc2nc(-c3cccc(C(F)(F)F)n3)nn3cccc23)ccn1` [Example 292, 4-({2-[6-(trifluoromethyl)pyridin-2-yl]pyrrolo[2,1-f][1,2,4]triazin-4-yl}amino)pyridine-2-carbonitrile] stands 360 nM.

`CC(=O)Nc1cc(Nc2nc(-c3ccccn3)nn3ccc(CN4CCOCC4)c23)ccn1` [Example 293, N-(4-{[5-(morpholin-4-ylmethyl)-2-(pyridin-2-yl)pyrrolo[2,1-f][1,2,4]triazin-4-yl]amino}pyridin-2-yl)acetamide] came in with an IC50 of 0.25 nM. `Fc1cnccc1Nc1nc(-c2ccccn2)nn2ccc(CNCc3ccc4c(c3)OCO4)c12` [Example 294, N-(5-{[(2H-1,3-benzodioxol-5-ylmethyl)amino]methyl}-2-(pyridin-2-yl)pyrrolo[2,1-f][1,2,4]triazin-4-yl)-3-fluoropyridin-4-amine] displayed an IC50 of 0.4 nM. Next, `Cc1nc2ccc(NCc3ccn4nc(-c5ccccn5)nc(Nc5ccncc5F)c34)cc2s1` [Example 295, N-({4-[(3-fluoropyridin-4-yl)amino]-2-(pyridin-2-yl)pyrrolo[2,1-f][1,2,4]triazin-5-yl}methyl)-2-methyl-1,3-benzothiazol-6-amine]: 30 nM. Next, `OCC1(CNCc2ccn3nc(-c4ccccn4)nc(Nc4ccncc4F)c23)COC1` [Example 296, (3-{[({4-[(3-fluoropyridin-4-yl)amino]-2-(pyridin-2-yl)pyrrolo[2,1-f][1,2,4]triazin-5-yl}methyl)amino]methyl}oxetan-3-yl)methanol]: under 0.25 nM; `Fc1cnccc1Nc1nc(-c2ccccn2)nn2ccc(CNc3ccc(-c4cnco4)cc3)c12` [Example 297, 3-fluoro-N-[5-({[4-(1,3-oxazol-5-yl)phenyl]amino}methyl)-2-(pyridin-2-yl)pyrrolo[2,1-f][1,2,4]triazin-4-yl]pyridin-4-amine]: 71 nM. Under `Fc1cnccc1Nc1nc(-c2ccccn2)nn2ccc(CNc3cc(-c4ccccc4)[nH]n3)c12` [Example 298, 3-fluoro-N-(5-{[(5-phenyl-1H-pyrazol-3-yl)amino]methyl}-2-(pyridin-2-yl)pyrrolo[2,1-f][1,2,4]triazin-4-yl)pyridin-4-amine] stands 27 nM; under `Fc1cnccc1Nc1nc(-c2ccccn2)nn2ccc(CNCC3CNCCO3)c12` (centres unmarked) [Example 299, 3-fluoro-N-(5-{[(morpholin-2-ylmethyl)amino]methyl}-2-(pyridin-2-yl)pyrrolo[2,1-f][1,2,4]triazin-4-yl)pyridin-4-amine], 23 nM; under `C[C@@H](NCc1ccn2nc(-c3ccccn3)nc(Nc3ccncc3F)c12)C(C)(C)C` [Example 300, N-[5-({[(2R)-3,3-dimethylbutan-2-yl]amino}methyl)-2-(pyridin-2-yl)pyrrolo[2,1-f][1,2,4]triazin-4-yl]-3-fluoropyridin-4-amine], 3.3 nM. As for `CC(C)(NCc1ccn2nc(-c3ccccn3)nc(Nc3ccncc3F)c12)c1ccccn1` [Example 301, 3-fluoro-N-[2-(pyridin-2-yl)-5-({[2-(pyridin-2-yl)propan-2-yl]amino}methyl)pyrrolo[2,1-f][1,2,4]triazin-4-yl]pyridin-4-amine], the half-maximal inhibitory concentration (IC50) is 0.58 nM. Under `CC(C)n1cc(NCc2ccn3nc(-c4ccccn4)nc(Nc4ccncc4F)c23)cn1` [Example 302, 3-fluoro-N-[5-({[1-(propan-2-yl)-1H-pyrazol-4-yl]amino}methyl)-2-(pyridin-2-yl)pyrrolo[2,1-f][1,2,4]triazin-4-yl]pyridin-4-amine] stands 1.7 nM; under `CN1CCC(CCNCc2ccn3nc(-c4ccccn4)nc(Nc4ccncc4F)c23)CC1` [Example 303, 3-fluoro-N-[5-({[2-(1-methylpiperidin-4-yl)ethyl]amino}methyl)-2-(pyridin-2-yl)pyrrolo[2,1-f][1,2,4]triazin-4-yl]pyridin-4-amine], 5.4 nM. `Fc1cnccc1Nc1nc(-c2ccccn2)nn2ccc(CNCCc3ccccn3)c12` [Example 304, 3-fluoro-N-[2-(pyridin-2-yl)-5-({[2-(pyridin-2-yl)ethyl]amino}methyl)pyrrolo[2,1-f][1,2,4]triazin-4-yl]pyridin-4-amine]: the IC50 turned out to be 2.5 nM. Take `Cc1cnc(CNCc2ccn3nc(-c4ccccn4)nc(Nc4ccncc4F)c23)cn1` [Example 305, 3-fluoro-N-[5-({[(5-methylpyrazin-2-yl)methyl]amino}methyl)-2-(pyridin-2-yl)pyrrolo[2,1-f][1,2,4]triazin-4-yl]pyridin-4-amine]: the IC50 is 2.6 nM. Under `Fc1cnccc1Nc1nc(-c2ccccn2)nn2ccc(CNc3ccc4[nH]nnc4c3)c12` [Example 306, N-({4-[(3-fluoropyridin-4-yl)amino]-2-(pyridin-2-yl)pyrrolo[2,1-f][1,2,4]triazin-5-yl}methyl)-1H-1,2,3-benzotriazol-5-amine] stands 5.3 nM; under `Fc1cnccc1Nc1nc(-c2ccccn2)nn2ccc(CNC3CCNCC3)c12` [Example 307, 3-fluoro-N-(5-{[(piperidin-4-yl)amino]methyl}-2-(pyridin-2-yl)pyrrolo[2,1-f][1,2,4]triazin-4-yl)pyridin-4-amine], 9.1 nM; under `Cc1nnc(NCc2ccn3nc(-c4ccccn4)nc(Nc4ccncc4F)c23)s1` [Example 308, 3-fluoro-N-(5-{[(5-methyl-1,3,4-thiadiazol-2-yl)amino]methyl}-2-(pyridin-2-yl)pyrrolo[2,1-f][1,2,4]triazin-4-yl)pyridin-4-amine], 4.7 nM.
